US20060258736A1, “DOSING REGIMEN” (Bristol-Myers Squibb Company, priority 2005, published 2006)
“Also recorded” adds a separate entry of the source.

Columns and labels:
Type in all cases: in vivo, human
patients = test: Neuropathy on the weekly treatment schedule (comparison, n = 48)
[1] = tested on: advanced solid tumors refractory to standard therapy; test: Phase I clinical trial, twice weekly oral dosing: tumor response (modified WHO criteria)
Method: Patients with histologically confirmed, advanced solid tumors refractory to standard therapy, ECOG performance status 0-2, and adequate live, renal and bone marrow function without symptomatic brain metastasis or pre-existing neuropathy ≧grade 2 were eligible for the trial. The starting dose was 60 mg/m^2 with planned dose escalation of 20 mg/m^2 for each next cohort, consisting of at least 3 patients. Cohorts were expanded to 6 patients upon occurrence of a dose limiting toxicity (DLT). No premedication was required. Tumor response was evaluated according to the modified WHO criteria.

[2] = tested on: patients with advanced solid tumors; test: Phase I clinical trial, twice weekly oral dosing: toxicity (NCI-CTC version 2.0) and dose limiting toxicities; details: for Neuropathy / neurotoxicity on twice weekly regimen compared to weekly schedule: twice weekly vs weekly
Method: Patients with histologically confirmed, advanced solid tumors refractory to standard therapy, ECOG performance status 0-2, and adequate live, renal and bone marrow function without symptomatic brain metastasis or pre-existing neuropathy ≧grade 2 were eligible for the trial.
The starting dose was 60 mg/m^2 with planned dose escalation of 20 mg/m^2 for each next cohort, consisting of at least 3 patients. Cohorts were expanded to 6 patients upon occurrence of a dose limiting toxicity (DLT). No premedication was required.
Toxicity was evaluated according to NCI-CTC (version 2.0).
Dose limiting toxicities (DLTs) were defined as any of the following drug related events occurring during the first cycle (first 4 weeks): grade 4 neutropenia>5 days, febrile neutropenia, grade 4 thrombocytopenia or grade 3 requiring platelet transfusion, any grade 3-4 non-hematological toxicity, QTc interval>500 msec, any significant arrhythmia, any dose reduction or omission due to toxicity.

[3] = any cycle, 19 patients, 60-100 mg/m^2 twice weekly

## COC(=O)O[C@@]12CO[C@@H]1C[C@H](O)[C@@]1(C)C(=O)[C@H](OC(C)=O)C3=C(C)[C@@H](OC(=O)[C@H](O)[C@@H](NC(=O)OC(C)(C)C)C(C)(C)C)C[C@@](O)([C@@H](OC(=O)c4ccccc4)[C@H]21)C3(C)C [Compound I, 3′-tert-butyl-3′-N-tert-butyloxycarbonyl-4-deacetyl-3′-dephenyl-3 ′-N-debenzoyl-4-O-methoxycarbonyl-paclitaxel]
patients; Weekly schedule (n = 48)
  Neuropathy (any cycle) Grade 1, no. of patients: 6
  Neuropathy (any cycle) Grade 1, percent of patients: 13%
  Neuropathy (any cycle) Grade 2, no. of patients: 19
  Neuropathy (any cycle) Grade 2, percent of patients: 40%
  Neuropathy (any cycle) Grade 3, no. of patients: 6
  Neuropathy (any cycle) Grade 3, percent of patients: 12%
  Neuropathy (any cycle) Total, no. of patients: 31
  Neuropathy (any cycle) Total, percent of patients: 65%
patients; weekly treatment regimen
  Main and dose limiting toxicity: peripheral neuropathy
[1]; 18 response-evaluable patients
  Confirmed partial responses: three confirmed partial responses were observed in 18 response-evaluable patients
[1]; of 3 prostate carcinoma patients
  Confirmed partial responses, no. of patients: 1
[1]; of 6 response-evaluable NSCLC patients
  Confirmed partial responses, no. of patients: 2
[1]; patients with NSCLC and prostate carcinoma
  Antitumor activity: Promising activity has been observed
[2]; 60 mg/m^2 twice weekly (n=3), first cycle
  Dose limiting toxicities (DLTs): No dose limiting toxicities (DLTs) have been observed
[2]; 80 mg/m^2 twice weekly (n=10), first cycle, a grade 3 fatigue and a dose-omission due to grade 2 peripheral neuropathy
  Dose limiting toxicities (DLTs), number: 2
[2]; 100 mg/m^2 twice weekly
  Toxicity shortly after the first cycle (not meeting DLT criteria): one patient developed grade 4 neutropenia, grade 3 fatigue and grade 3 hematuria
[2]; 100 mg/m^2 twice weekly, first three patients, first cycle
  Dose limiting toxicities (DLTs): no DLTs were observed in the first three patients
[2]; Twice weekly schedule (n = 19)
  Neuropathy (any cycle) Grade 1, no. of patients: 8
  Neuropathy (any cycle) Grade 1, percent of patients: 42%
  Neuropathy (any cycle) Grade 2, no. of patients: 2
  Neuropathy (any cycle) Grade 2, percent of patients: 10%
  Neuropathy (any cycle) Total, no. of patients: 10
  Neuropathy (any cycle) Total, percent of patients: 52%
[2]; [3]
  Drug-related side effects: Abdominal pain, Gr 1-2 (no. of patients): 2
  Drug-related side effects: Alopecia, Gr 1-2 (no. of patients): 3
  Drug-related side effects: Anorexia, Gr 1-2 (no. of patients): 6
  Drug-related side effects: Diarrhea, Gr 1-2 (no. of patients): 9
  Drug-related side effects: Epistaxis, Gr 1-2 (no. of patients): 7
  Drug-related side effects: Fatigue, Gr 1-2 (no. of patients): 7
  Drug-related side effects: Fatigue, Gr 3 (no. of patients): 2
  Drug-related side effects: Hematuria, Gr 3 (no. of patients): 1
  Drug-related side effects: Motor neuropathy, Gr 1-2 (no. of patients): 1
  Drug-related side effects: Myalgia, Gr 1-2 (no. of patients): 3
  Drug-related side effects: Nausea, Gr 1-2 (no. of patients): 3
  Drug-related side effects: Neutropenia, Gr 1-2 (no. of patients): 1
  Drug-related side effects: Neutropenia, Gr 4 (no. of patients): 1
  Drug-related side effects: Sens. neuropathy, Gr 1-2 (no. of patients): 10
  Drug-related side effects: Stomatitis, Gr 1-2 (no. of patients): 1
  Drug-related side effects: Taste disturbance, Gr 1-2 (no. of patients): 7
  Drug-related side effects: Thrombocytopenia, Gr 1-2 (no. of patients): 5
  Drug-related side effects: Vomiting, Gr 1-2 (no. of patients): 2
[2]; twice weekly treatment regimen
  Tolerability: well tolerated
[2]
  Neuropathy / neurotoxicity on twice weekly regimen compared to weekly schedule: reduces peripheral neuropathy; also recorded: neuropathy appears to be less frequent and less severe; also recorded: Neuropathy appears to occur less frequently and to be less severe than on a weekly treatment schedule
[2]; listed as 3′-tert-butyl-3′-N-tert-butyloxycarbonyl-4-deacetyl-3′-dephenyl-3′-N-debenzoyl-4
  Neuropathy / neurotoxicity on twice weekly regimen compared to weekly schedule: may reduce the neurotoxicity of the drug
